According to PMC12691742, “Anti-Cancer Outcome of Glucocorticoid Receptor Transrepression by Synephrine Derivatives in Hematological Malignancies” (International Journal of Molecular Sciences, 2025):
“Also recorded” adds a separate entry of the source.

Key:
[1] = test system: DDIT4 expression in Granta cells; assay: Q-PCR of DDIT4 in Granta cells; assay type: cell-based; conditions: 24 h, 8S-E3 25 µM
Text: (§1) Q-PCR results were confirmed by Western blot analysis of the level of GR phosphorylated by Ser211, known as a crucial protein modification for GR TA realization because of its binding to short cysteine-rich fragments of the coactivator CREB-binding protein [41].
(§2) Figure 3 Effects of synephrine derivatives on GR transactivation in Granta lymphoma and K562 leukemia cells. (A) Q-PCR analysis of FKBP51, GILZ, and DDIT4 mRNA expression in K562 and Granta cells. […] The Q-PCR results were normalized to the expression of the housekeeping gene RPL27 and are presented as fold changes compared to the control. The mean ± SD was calculated for three individual samples/condition (n = 3). Statistically significant differences compared to the control: * p < 0.05, ** p < 0.01. (B) The levels of the nuclear fraction of phospho-GR (Ser211) were determined using Western blot analysis (n = 3; characteristic images are presented in the figure). Histone H3 was used as a loading control.
(§3) Total RNA isolation from cell cultures and murine bones, reverse transcription, and Q-PCR were performed as described in [36]. Primers were designed using NCBI Primer-BLAST https://www.ncbi.nlm.nih.gov/tools/primer-blast/, accessed on 25 August 2025 (Supplementary Table S1). Results were normalized to the expression of the housekeeping RPL27 и Rpl27 genes. The experiments were performed in triplicate.

[2] = test system: leukemia and lymphoma cells (Granta, K562); set-up: method as in PMID 39858397; conditions: leukemia and lymphoma cells; read-out: cell viability IC50; cited from earlier work
GR = target: T1, GR (Homo sapiens, UniProt P04150); assay: GR radioligand binding assay, competition with [3H]Dex in K562 cells
T1 construct: endogenous in cells; host or cells: K562
T1 sequence (P04150 1-777): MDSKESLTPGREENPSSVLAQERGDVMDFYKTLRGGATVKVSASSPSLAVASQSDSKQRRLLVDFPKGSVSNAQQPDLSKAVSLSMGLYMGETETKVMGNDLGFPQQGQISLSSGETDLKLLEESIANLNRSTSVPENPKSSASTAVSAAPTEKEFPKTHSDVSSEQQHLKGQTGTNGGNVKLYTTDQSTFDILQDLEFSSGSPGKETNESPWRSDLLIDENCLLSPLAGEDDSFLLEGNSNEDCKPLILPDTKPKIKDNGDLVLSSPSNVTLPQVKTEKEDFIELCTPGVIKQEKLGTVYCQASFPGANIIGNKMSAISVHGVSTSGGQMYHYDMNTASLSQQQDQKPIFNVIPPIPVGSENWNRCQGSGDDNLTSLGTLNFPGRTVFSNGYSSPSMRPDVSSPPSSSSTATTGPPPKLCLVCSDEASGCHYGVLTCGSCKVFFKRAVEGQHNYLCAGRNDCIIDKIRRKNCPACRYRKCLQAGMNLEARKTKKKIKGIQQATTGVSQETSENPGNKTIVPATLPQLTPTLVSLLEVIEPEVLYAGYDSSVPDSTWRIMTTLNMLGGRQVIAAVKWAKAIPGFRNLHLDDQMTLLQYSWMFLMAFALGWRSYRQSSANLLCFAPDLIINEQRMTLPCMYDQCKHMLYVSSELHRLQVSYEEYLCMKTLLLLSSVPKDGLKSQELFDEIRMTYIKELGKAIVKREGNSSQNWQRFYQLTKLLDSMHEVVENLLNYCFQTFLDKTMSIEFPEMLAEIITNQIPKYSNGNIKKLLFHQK
Experimental: (A,B). […] The stability of the complex was simulated using molecular dynamics in the GROMACS program. (C) GR binding affinity was estimated using a radioligand binding assay. […] Cell lysate radioactivity was measured using a RackBeta 1215 LC (LKB Wallac, Turku, Finland) spectrometer for 4 min. […] The experiments were performed in triplicate (n = 3).
After 90 min of incubation, the cells were washed twice by centrifugation in cold serum-free medium (1500 rpm, 5 min). The cells were then lysed with RIPA buffer (50 mM Tris (pH 8.0), 150 mM NaCl, 1 mM ethylenediaminetetraacetic acid, 0.1% sodium dodecyl sulfate, 0.5% sodium deoxycholate, 1% triton-X100, 10% glycerin, and protease inhibitor) for 20 min. Lysates were transferred to scintillation liquid, and radioactivity was measured using a RackBeta 1215 LC spectrometer for 4 min. […] IC50 was determined using GraphPad Prism software, Ver.7.0. […] “Top” meant the highest value in dpm and was equal to 100%, while the “bottom” was considered as the lowest value (0%). […] The IC50 values for each ligand were determined by plotting these curves. The experiments were performed in triplicate.

[3] = test system: DDIT4 expression in K562 cells; assay: Q-PCR of DDIT4 in K562 cells; assay type: cell-based; conditions: 24 h, 8S-E3 25 µM
Text: as §1, §2, §3

[4] = test system: GR phosphorylated by Ser211 in K562 and Granta cells; assay: Western blot of nuclear phospho-GR (Ser211); assay type: cell-based; conditions: 10 h; Dex 10 µM, 4S-C2 50 µM, 8S-E3 50 µM, 10S-E2 15 µM, 13S-G2 25 µM
Experimental: as §2
Western blot analysis was performed as previously described. Proteins were resolved using SDS-PAGE. Membranes were blocked with 5% nonfat milk solution and then incubated with primary antibodies against phosphorylated GR (pGR, Ser211) (“Santa Cruz Biotechnology”, Santa Cruz, CA, USA) overnight at 4 °C. To verify equal protein loading and adequate transfer, the membranes were probed with Histone H3 antibodies (“Cell Signaling”, Boston, MA, USA). Goat anti-rabbit IgGs (“Jackson Immuno Research”, West Grove, PA, USA) were used as secondary antibodies. Signals were detected using ECL reagent and an ImageQuant LAS4000 system (“GE HealthCare”, Chicago, IL, USA). ImageJ 1.54h software was used for densitometry. The experiments were performed in triplicate.
7 K562, pGR nuclear 5 Granta, pGR nuclear
Supplementary Figure S 22. Quantification of Western blot analysis. K562 and Granta cells […]
μM) and 13S-G2 (25 μ M) for 10 h. Quantification of Western blot anal ysis of p- GR protein levels was done usin g Im a ge J f ree so ftwar e. Statisticall y significant diff eren ces as compared to control: […]

[5] = test system: FKBP51, GILZ, DDIT4 mRNA expression in K562 and Granta cells; assay: Q-PCR of GR transactivation marker genes; assay type: cell-based; conditions: 4 h (FKBP51, GILZ) or 24 h (DDIT4); Dex 10 µM, 10S-E2 0.1 µM; vs control
Text: as §1, §2, §3

Granta cells = assay: Cell cycle analysis by PI flow cytometry in Granta cells; assay type: cell-based; conditions: 24 h, Dex 50 µM, 4S-C2 25 µM, 8S-E3 12.5 µM, 10S-E2 6.25 µM, 13S-G2 1 µM
Experimental: (§4) Figure 5 Pro-apoptotic and anti-cancer effects of synephrine derivatives in vitro and in vivo. (A) Effect of 4S-C2, 8S-E3, 10S-E2, and 13S-G2 on cell cycle progression in K562 and Granta cells after 24 h of incubation. The cells were fixed with ethanol, stained with propidium iodide, and analyzed using flow cytometry. Statistically significant difference compared to control: *—p < 0.05, **—p < 0.01 (n = 3). (B) In vivo anti-cancer activity was evaluated using the transplantable P388 murine lymphoma model. […] Tumor nodule size was measured twice a week using digital calipers. Statistically significant differences compared to the control: * p < 0.05, ** p < 0.01.
The distribution of cells by cell cycle phases was evaluated using propidium iodide (PI) staining, as described in [19]. […] After incubation, the cells were resuspended in 70% ethanol and fixed for 2h at 4 °C. Cells were then washed twice with cold PBS, pH 7.4, and stained with 500 µL of cold propidium iodide (PI) solution (50 µg/mL PI, 1% Triton X-100, and 100 µg/mL RNase A in PBS). The cell cycle distribution of cells in samples was analyzed using an FACSCalibur Flow Cytometer (“BD Biosciences”, San Jose, CA, USA). The experiments were performed in triplicate.

BALB/c female mice = assay: Glucocorticoid-induced osteoporosis model: bone and skin morphometry, body weight; assay type: in vivo; conditions: Dex 20 mg/kg
Text: (§5) (A) H&E bone staining and quantification of cortical bone thickness. (B) Q-PCR analysis of Rankl, Mmp9, Tsc2, Trap, and Bglap mRNA expression in bone tissue. […] (C) H&E skin staining and quantification of dermal adipose thickness (50 images per treatment group of 10 animals). Statistically significant differences compared to the control: * p < 0.05, ** p < 0.01.
(§6) The protocol for the experiment was approved by the local N.N. Blokhin National Medical Research Center Ethics Committee and corresponded to the guidelines for the welfare and use of animals in cancer research adopted by The United Kingdom Coordinating Committee on Cancer Prevention Research. […] Body weight was recorded twice a week for toxicity control.
Bone and skin samples from the GIOP experiment were fixed in formaldehyde and embedded in paraffin, and sections were stained with hematoxylin and eosin. After formaldehyde fixation, the bone samples were decalcified in decalcification buffer (0.5 M EDTA, 0.7 mM NaOH, pH7.0) for 14 days, washed twice with PBS, and further processed according to the standard histology protocol. The dermal adipose and bone thickness were quantified in sections stained with hematoxylin and eosin. At least five individual fields per slide of each sample/treatment (at least 50 images/treatment group) were analyzed using Axioplan2 microscope software (“Carl Zeiss”, Jena, Germany). The dermal adipose or bone thickness in treated animals is presented as a percentage of the control animals.

P388 murine lymphoma = assay: Transplantable P388 murine lymphoma model; assay type: in vivo, mice; conditions: Dex 1 mg/kg
Experimental: as §4
The protocol for the experiment was approved by the local N.N. Blokhin National Medical Research Center Ethics Committee and corresponded to the guidelines for the welfare and use of animals in cancer research adopted by The United Kingdom Coordinating Committee on Cancer Prevention Research. P388 cells were injected i.p. into 5-week-old female DBA/2 mice (“Stolbovaya Farm”, Stolbovaya, Russia). After 15 days, the cells were collected from the peritoneum, washed, and resuspended in PBS. For the experiments, 0.1 mL containing 2 million cells obtained from the ascites was inoculated s.c. in 5-week-old female BDF1 mice (“Stolbovaya Farm”, Stolbovaya, Russia). […] Body weight was recorded twice a week for toxicity determination. Tumor size was measured three times per week using digital calipers.

[6] = test system: Rankl, Mmp9, Tsc2, Trap, Bglap mRNA expression in bone tissue; assay: Glucocorticoid-induced osteoporosis model: Q-PCR of marker genes in bone tissue; assay type: in vivo, mice; conditions: 5 weeks, Dex 20 mg/kg
Experimental: as §5
Total RNA isolation from cell cultures and murine bones, reverse transcription, and Q-PCR were performed as described in [36]. […] Results were normalized to the expression of the housekeeping RPL27 и Rpl27 genes. The experiments were performed in triplicate.
as §6

[7] = i.p. every 24 h for 5 weeks, 10S-E2 10 mg/kg

| IC50 (GR) [nM] | Bglap mRNA expression in bone tissue [6] | Rankl mRNA expression in bone tissue ([6]; 10S-E2 10 mg/kg) | Trap mRNA expression in bone tissue ([6]; 10S-E2 10 mg/kg) | SMILES | decrease in DDIT4 expression [1] | IC50 [2] [µM] | DDIT4 expression [3] | GR phosphorylation level at Ser211 [4] | expression of TA marker genes FKBP51, GILZ, DDIT4 [5] | level of apoptosis (sub-G1-phase cell population) (Granta cells) | animal body weight vs control (BALB/c female mice; GIOP study, 10S-E2 10 mg/kg i.p. every 24 h for 5 weeks) | loss of cortical bone thickness (BALB/c female mice; [7]) [%] | reduction of dermal adipose tissue / skin atrophy (BALB/c female mice; [7]) | animal body weight change vs control (P388 murine lymphoma; P388 model, 10S-E2 10 mg/kg i.p. 3 times per week) | inhibition of tumor growth (P388 murine lymphoma; s.c. P388 in BDF1 mice, i.p. 3 times per week, 10S-E2 10 mg/kg) | Mmp9 mRNA expression in bone tissue ([6]; 10S-E2 10 mg/kg) | Tsc2 mRNA expression in bone tissue ([6]; 10S-E2 10 mg/kg) |
| --- | --- | --- | --- | --- | --- | --- | --- | --- | --- | --- | --- | --- | --- | --- | --- | --- | --- |
| 80 | – | – | – | OCCNCC(O)c1ccc(OCc2ccccc2)cc1 (stereo not drawn) [8S-E3, 1-(4-(benzyloxy)phenyl)-2-((2-hydroxyethyl)amino)ethanol] | 1,5 fold | 80 to 120 | strongly attenuated DDIT4 expression by more than three times | weak increase | – | – | – | – | – | – | – | – | – |
| – | Downregulation | upregulation | upregulation | C[C@@H]1C[C@H]2[C@@H]3CCC4=CC(=O)C=C[C@]4(C)[C@@]3(F)[C@@H](O)C[C@]2(C)[C@@]1(O)C(=O)CO [Dex, dexamethasone, reference compound] | – | – | – | weak increase | 5-30 fold | higher than that in the control samples | no statisticall y si gnificant differences; also recorded: similar | 30 | approximately 70% | no statisticall y si gnificant differences | 60–70% | tendency toward Mmp9 and Tsc2 upregulation | tendency toward Mmp9 and Tsc2 upregulation |
